This note sets out measurements from PubChem BioAssay (NCI).

Each structure is given as a SMILES string. Values joined by “and” are separate entries in the source; they are usually repeats but may differ in a detail not shown here. Equal entries are not always repeated.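 Protocol summary: plate cells (96-well), add compound at 5 concentrations, incubate 48 h, interpolate endpoints linearly. The concentration for 50% growth inhibition is given as GI50. TGI is the concentration that stops growth completely.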

Holding throughout (test): NCI anticancer screen, dose series, 48 h
In test [1] the test system is EKVX NSCLC.
The subject of test [2] is BT-549 breast.
For test [3], the system named is OVCAR-8 ovarian.
Test [4] has as its system MDA-MB-435.
Test [5] concerns HL-60(TB) leukemia.
Test [6] has as its system NCI/ADR-RES ovarian.
In test [7] the test system is OVCAR-3 ovarian.
Test [8] concerns UO-31 renal.
Test [9] has as its system SK-OV-3 ovarian.
Test [10] deals with PC-3 prostate.

Turning to `Fc1ccc(C2C3CCOc4c(ccc5ccccc45)C3=NN2c2ccccc2)cc1` (stereo not given), the GI50 is greater than 87.4 µM in test [1]; greater than 100 µM in [2]; greater than 60.2 µM in test [3]; greater than 100 µM in [4]; greater than 100 µM in [5]; greater than 100 µM in test [6]. In addition, the GI50 in [7] is 99.6 µM; in [8] it was greater than 100 µM; in test [9], greater than 100 µM; in test [10] it was greater than 54.9 µM. Also, the TGI in [1], in [2], in test [3], in test [4], in test [5] and in [6] was greater than 100 µM in each case. Further, the TGI in test [7], in test [8], in [9] and in test [10] was greater than 100 µM each time.

Take `Cc1cc2c(cc1Cl)N1C(=O)NS(=O)(=O)N=C1NS2(=O)=O`: the GI50 in test [1], in [2], in [3], in test [4], in test [5] and in test [6] was greater than 100 µM each time. Further, the GI50 in [7], in test [8], in test [9] and in test [10] was greater than 100 µM throughout. Besides, the TGI in test [1], in [2], in [3], in [4], in test [5] and in [6] was greater than 100 µM throughout. For the same compound, the TGI in test [7], in test [8], in [9] and in test [10] was greater than 100 µM throughout.

As for `COc1ccc2c(c1)N(CCO)C1=C(C(=O)OC1)C2c1ccc(OC)c(OC)c1` (stereo not given), the GI50 in test [1] is 6.52 µM; in [2], 2.98 µM; in [3] it was 3.34 µM; in test [4], 0.407 µM; in [5], 2.04 µM; in test [6], 4.38 µM. Besides, the GI50 in test [7] is 1.92 µM; in [8] it was 4.65 µM; in [9], 4.13 µM; in test [10], 3.03 µM. The TGI in test [1] is greater than 100 µM; in [2], 9.74 µM; in [3] it was greater than 100 µM; in [4] it was 2.13 µM; in [5] it was 5.51 µM; in [6], 45.1 µM. Besides, the TGI in test [7] was 4.24 µM; in test [8] it was greater than 100 µM; in [9], greater than 100 µM; in test [10], greater than 100 µM.

For `COc1c2ccccc2c(O)c2c(=O)ccn(C)c12`, the GI50 in [1] was 17.9 µM; in [2], 14.7 µM; in [3], 4.42 µM; in test [4] it was 2.03 µM; in test [5], 3.25 µM; in test [6], 4.62 µM. Moreover, the GI50 in test [7] was 1.86 µM; in test [8] it was greater than 57.5 µM; in test [9], 75.1 µM; in [10], 15 µM. Further, the TGI in [1] stood at 79.2 µM; in test [2], 84.2 µM; in test [3] it was 38.1 µM; in test [4], 4.32 µM; in [5], 18.7 µM; in [6] it was 30 µM. Besides, the TGI in test [7] was 11 µM; in [8] it was greater than 100 µM; in [9] it was greater than 100 µM; in test [10] it was 57.6 µM.

On to `COc1cc(NC(=O)c2ccccc2Nc2ccnc(C(F)(F)F)c2)cc(OC)c1OC`, for which the GI50 in test [1] was 48.3 µM; in test [2], 43.5 µM; in [3] it was 69.6 µM; in [4], 63.3 µM; in test [5], 44.3 µM; in test [6], 32.3 µM. Further, the GI50 is 22.4 µM in test [7], 19.8 µM in test [8], greater than 100 µM in test [9] and 35.3 µM in test [10]. Also, the TGI in [1], in test [2], in test [3], in test [4], in test [5] and in test [6] was greater than 100 µM each time. For the same compound, the TGI is greater than 100 µM in test [7], 92.1 µM in test [8], greater than 100 µM in test [9] and greater than 100 µM in [10].

`COc1ccc2c(c1)C(=O)c1c-2c(N2CCN(C(=O)CCNCCNCCO)CC2)nc2ccccc12`: the GI50 was 14.5 µM in test [1]; 7.14 µM in test [2]; 19.5 µM in test [3]; 21.7 µM in test [4]; 10.3 µM in [5]; 18 µM in test [6]. Also, the GI50 in test [7] was 20.6 µM; in test [8], 13.9 µM; in test [9], 15.9 µM; in test [10], 13.2 µM. For the same compound, the TGI turned out to be 30.1 µM in test [1]; 21.2 µM in test [2]; 48.3 µM in test [3]; 47.8 µM in [4]; 25.8 µM in test [5]; 36.1 µM in test [6]. Further, the TGI in test [7] came to 43.2 µM; in [8] it was 31.4 µM; in [9], 30.9 µM; in [10] it was 27.9 µM.

For the compound `CCN(CCO)CCCOc1ccc2c(Nc3cc(CC(=O)Nc4cccc(F)c4)[nH]n3)ncnc2c1`, the GI50 was 84.1 µM in test [1]; 13 µM in [2]; 23.8 µM in test [3]; 14.1 µM in test [4]; 13 µM in test [5]; greater than 100 µM in test [6]. Moreover, the GI50 in [7] is 10.9 µM; in test [8], greater than 100 µM; in test [9], 15.6 µM; in test [10], 17.7 µM. For the same compound, the TGI in test [1] is greater than 100 µM; in test [2], 29.7 µM and > 3.6 µM; in test [3] it was greater than 100 µM; in [4], 34 µM; in test [5], 40.4 µM; in test [6] it was greater than 100 µM. Moreover, the TGI in test [7] is 42.9 µM and > 4.07 µM; in test [8] it was greater than 100 µM; in [9], greater than 57.1 µM; in test [10] it was greater than 64.8 µM.
